# Molecular target: T1, TXK (Homo sapiens, UniProt P42681)
# T1 construct: purchased Thermo Fisher Scientific (Life Technologies) SelectScreen
# Assay: SelectScreen Z'LYTE
# Type: biochemical
# How it was run: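 NU5455 was profiled across the SelectScreen Broad panel of kinase activity and binding assays. Z'LYTE reactions such as CSF1R ran at apparent Km ATP, while the Adapta CAMK1 assay used ATP listed as 10. Values are given as percent.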
# T1 sequence (P42681 whole entry): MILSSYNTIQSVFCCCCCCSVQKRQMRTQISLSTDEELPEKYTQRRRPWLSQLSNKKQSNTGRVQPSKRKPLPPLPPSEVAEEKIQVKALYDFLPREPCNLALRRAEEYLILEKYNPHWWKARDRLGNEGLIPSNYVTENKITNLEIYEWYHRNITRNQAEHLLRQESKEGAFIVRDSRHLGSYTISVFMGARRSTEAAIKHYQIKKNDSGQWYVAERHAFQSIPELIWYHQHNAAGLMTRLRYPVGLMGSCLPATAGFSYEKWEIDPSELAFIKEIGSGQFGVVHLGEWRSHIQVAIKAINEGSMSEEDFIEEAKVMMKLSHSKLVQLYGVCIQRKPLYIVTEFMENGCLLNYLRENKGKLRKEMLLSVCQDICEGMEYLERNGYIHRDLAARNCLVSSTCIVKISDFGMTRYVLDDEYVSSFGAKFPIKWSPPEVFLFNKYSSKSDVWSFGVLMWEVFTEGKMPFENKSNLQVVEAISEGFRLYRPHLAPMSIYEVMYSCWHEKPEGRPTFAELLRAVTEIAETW
smiles,measurement,value
CN(C(=O)CN1CCOCC1)c1ccc2sc3c(-c4cccc5c(=O)cc(N6CC7CCC(C6)O7)oc45)cccc3c2c1 [NU5455],inhibition at 1 µM,-2.9%

# From PMC6934184, “Selective DNA-PKcs inhibition extends the therapeutic index of localized radiotherapy and chemotherapy” (The Journal of Clinical Investigation, 2019)
